# Assay results: ChEMBL document CHEMBL3044560, “Microwave-assisted synthesis and antimicrobial activity of some imidazo[2,1-b][1,3,4]thiadiazole derivatives” (2012)
# Activity calls are given as the source filed them. The rule behind the calls is not given here.
# Legend:
# [1] = tested on: Candida albicans; assay: Antimicrobial activity against Candida albicans at 50 to 70 ug/ml after 72 hr by cup-plate method; format: functional, organism-based
# [2] = tested on: Candida albicans; assay: Antimicrobial activity against Candida albicans at 5 ug/ml after 72 hr by cup-plate method; format: functional; conditions: read-out: IZ
# [3] = tested on: Staphylococcus aureus; assay: Antimicrobial activity against Staphylococcus aureus at 75 ug/ml after 24 hr by cup-plate method; format: functional
# [4] = tested on: Candida albicans; assay: Antimicrobial activity against Candida albicans at 30 ug/ml after 72 hr by cup-plate method; format: functional; conditions: read-out: IZ
# [5] = tested on: Klebsiella; assay: Antimicrobial activity against Klebsiella at 50 ug/ml after 24 hr by cup-plate method; format: functional
# [6] = tested on: Candida albicans; assay: Antimicrobial activity against Candida albicans at 50 ug/ml after 72 hr by cup-plate method; format: functional; conditions: read-out: IZ
# [7] = tested on: Staphylococcus aureus; assay: Antimicrobial activity against Staphylococcus aureus at 10 ug/ml after 24 hr by cup-plate method; conditions: read-out: IZ
# [8] = tested on: Klebsiella; assay: Antimicrobial activity against Klebsiella at 10 ug/ml after 24 hr by cup-plate method; format: functional; conditions: read-out: IZ
smiles,measurement,setting,value
O=[N+]([O-])c1ccc(Cc2nn3cc(-c4ccc(Br)cc4)nc3s2)cc1,inhibition zone (IZ),[1],inactive
same,zone of inhibition at 5 µg/mL,[2],14 mm
same,inhibition zone (IZ),[3],inactive
OC(Cn1cncn1)(Cn1cncn1)c1ccc(F)cc1F [FLUCONAZOLE],zone of inhibition at 30 µg/mL,[4],22 mm
O=[N+]([O-])c1ccc(Cc2nn3cc(-c4ccc(F)cc4)nc3s2)cc1,inhibition zone (IZ),[5],inactive
same,inhibition zone (IZ),[3],inactive
same,zone of inhibition at 50 µg/mL,[6],22 mm
O=C(O)c1cn(C2CC2)c2cc(N3CCNCC3)c(F)cc2c1=O [CIPROFLOXACIN],zone of inhibition at 10 µg/mL,[7],28 mm
same,zone of inhibition at 10 µg/mL,[8],28 mm
